In US20040198653A1, “Pharmaceutical compositions which inhibit proliferation of pituitary adenomas and method of use thereof” (priority 2001, published 2004):
Where a SMILES comes first, the peptide text is derived from it. Bridges are numbered along the chain shown (N, C = ends). [ ]: non-standard residue; d: D form. The star is where a group is joined. Gly(N-2-aminoethyl) = NCCNCC(=O)O; 3Pal = N[C@@H](Cc1cccnc1)C(=O)O; Tic = O=C(O)[C@@H]1Cc2ccccc2CN1; X1 = Nc1ccn(CC(=O)*)c(=O)n1; Abu = CC[C@H](N)C(=O)O; Bn = c1ccc(C*)cc1

How the values were obtained:
pituitary adenoma cells [1] = assay: Cell proliferation: CELLTITER 96 Aqueous (MTS/PMS) assay, number of viable cells; assay type: cell-based; conditions: 10^-9 M, 48 hours incubation, medium with 10% FBS, absorbance at 490 nm
Protocol: The effects of SSTR selective agonists on pituitary adenoma cell proliferation were assessed by the CELLTITER 96 Aqueous Non-Radioactive Cell Proliferation Assay (Promega, Milano, Italy), a colorimetric method for determining the number of viable cells in proliferation assays. The assay contains solutions of a tetrazolium compound (Owen's reagent; MTS) and an electron coupling reagent (phenazine methosulphate; PMS). MTS is bioreduced by cells into a formazan that is soluble in tissue culture medium. The absorbance of the formazan at 490 nm can be measured directly from 96 well assay plates (Zatelli M C, et al., 2000 J Clin Endocrinol Metab 85: 847-852; Cory A H, et al., 1991 Cancer Commun 3: 207-212). The conversion of MTS into the aqueous soluble formazan is accomplished by dehydrogenase enzymes found in metabolically active cells. The quantity of formazan product as measured by the amount of 490 nm absorbance is directly proportional to the number of living cells in culture.
Briefly, adenoma cells were plated in 96-multiwell plates (2×10^4 cells/well) and incubated for 48 hours in a medium supplemented with 10% FBS in the presence or absence of each SRIF analogue (including in one instance, compounds 2 & 3 together) at a concentration of 10^−9 M. Treatments were renewed by adding fresh analogues to the wells after the first 24 hours of incubation. At the end of the incubation period, 20 μl of a combined MTS/PMS solution was added to each well with a repeating pipette, and the plates were incubated for an additional 4 hours at 37° C. in a humidified 5% CO2 atmosphere. The absorbance at 490 nm was then recorded using an ELISA plate reader (EASIA Reader, Medgenix). Results (absorbance at 490 nm) were obtained by determining the mean value of at least six experiments in eight replicates.

pituitary adenoma cells [2] = assay: DNA synthesis: [3H]thymidine incorporation in pituitary adenoma cells; assay type: cell-based; conditions: 10^-9 M, 48 h incubation, medium with 10% FBS, pituitary cells from functioning adenomas
Protocol: The effects of SSTR selective agonists and antagonists on pituitary adenoma cell DNA synthesis were assessed by determining the rate of [^3H]thymidine incorporation, as previously described (Davis L, et al., 1994 In: Basic methods in Molecular Biology, 2nd edition, Appleton & Lange, Norwalk, Conn., USA: 611-646, degli Uberti E C, et al., 1991 J Clin Endocrinol Metab 72: 1364-1371).
Approximately 10^5 pituitary cells from two functioning adenomas were plated in quadruplicate wells the day of surgery and treated the day after with SRIF and with Compounds 1, 2, 3, and LANREOTIDE at 10^−9M. After 48 h incubation in a medium supplemented with 10% FBS in the presence of [^3H]thy (1.5 μCi/mL; 87 Ci/mmol) with or without each SRIF analogue. Treatments were renewed by adding fresh analogues to the wells after the first 24 h of incubation, without removing the medium.
After incubation, the cells were washed three times with ice-cold PBS and twice with 10% ice-cold trichloroacetic acid (TCA). TCA-precipitated material was solubilized in 500 μL 0.2 mol/L sodium hydroxide and 0.1% SDS. Cell-associated radioactivity was then counted in a scintillation spectrometer. Results (counts per min per well) were obtained by determining the mean value of at least six experiments in quadruplicate. The viability of cells in control and treated cultures was evaluated by Trypan blue staining.

| SMILES | % Reduction Viable Cells (pituitary adenoma cells [1]) [%] | % Reduction [3H]Thymidine (pituitary adenoma cells [2]) [%] |
| --- | --- | --- |
| CC(C)[C@@H]1NC(=O)[C@H](CCCCN)NC(=O)[C@@H](Cc2c[nH]c3ccccc23)NC(=O)[C@H](Cc2ccc(O)cc2)NC(=O)[C@@H](NC(=O)[C@H](N)Cc2ccc3ccccc3c2)CSSC[C@@H](C(=O)N[C@H](C(N)=O)[C@@H](C)O)NC1=O [LANREOTIDE, D-Nal-cyclo[Cys-Tyr-D-Trp-Lys-Val-Cys]-Thr-NH2, reference compound] | 12. | 25. |
| C[C@@H](OCc1ccccc1)[C@H](NC(=O)[C@H]1CSSC[C@@H](NC(=O)CN(CCN)C(=O)Cn2ccc(N)nc2=O)C(=O)N[C@@H](Cc2cccnc2)C(=O)N[C@H](Cc2c[nH]c3ccccc23)C(=O)N[C@@H](CCCCN)C(=O)N1)C(=O)N[C@@H](Cc1ccc(O)cc1)C(N)=O [Compound 1, Caeg-c(D-Cys-Pal-D-Trp-Lys-D-Cys)-Thr(Bzl)-Tyr-NH2] (X1-[Gly(N-2-aminoethyl)][dC][3Pal][dW]K[dC]T(Bn)Y-NH2; disulfide 2-6) | 28.5 | – |
| C[C@@H](O)[C@H](NC(=O)[C@H](Cc1ccccc1)NC(=O)[C@@H](NC(=O)[C@H](CCCCN)NC(=O)[C@@H](Cc1c[nH]c2ccccc12)NC(=O)[C@H](Cc1c[nH]c2ccccc12)NC(=O)[C@H](Cc1ccccc1)NC(=O)[C@H](N)Cc1ccccc1)[C@@H](C)O)C(N)=O [Compound 3, D-Phe-Phe-Trp-D-Trp-Lys-Thr-Phe-Thr-NH2] | – | 15.5 |
| CC[C@@H]1NC(=O)[C@H](CCCCN)NC(=O)[C@@H](Cc2c[nH]c3ccccc23)NC(=O)[C@H](Cc2ccc(O)cc2)NC(=O)[C@@H]2Cc3ccccc3CN2C(=O)[C@H](Cc2ccccc2)NC1=O [Compound 2, cyclo[Tic-Tyr-D-Trp-Lys-Abu-Phe]] (cyclo([Tic]Y[dW]K[Abu]F)) | 12.5 | 25. |
| C[C@H](N)C(=O)NCC(=O)N[C@H]1CSSC[C@@H](C(=O)O)NC(=O)[C@H](CO)NC(=O)[C@H]([C@@H](C)O)NC(=O)[C@H](Cc2ccccc2)NC(=O)[C@H]([C@@H](C)O)NC(=O)[C@H](CCCCN)NC(=O)[C@H](Cc2c[nH]c3ccccc23)NC(=O)[C@H](Cc2ccccc2)NC(=O)[C@H](Cc2ccccc2)NC(=O)[C@H](CC(N)=O)NC(=O)[C@H](CCCCN)NC1=O [SRIF, reference compound] | 8. | – |
